{"source": "the supplement of paper PMC11208160", "data": [{"assay": "recombinant barcode read abundance after kanamycin selection (control-corrected) (log10(CPM+1)); higher = more efficient recombination; sequences stand for … in AGTGCAGAGAAAATCGGCCAGTTTTCTCTGCCTGCAGTCCGCATGCCGT…AGATTTATGCAGCGGACTGCCTTTCTCCCAAAGTGATAAACCGGACAGTATCATGGACCGGTTTTCCCGGTAATCCGTATTTGCAAGGTTGGTTTCACT; site = the 11-nt target", "outline": "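Targets and IS621 bridge RNA target-binding loops were paired in oligos, each with a promoter, a barcode and the J23119-driven first 104 bridge RNA bases. A vector carrying the remaining 73 bp and a T7-inducible recombinase received these by Gibson cloning, and the pool was co-electroporated into E. coli with a donor plasmid. Duplicate plates contained chloramphenicol/ampicillin LB agar (control) or chloramphenicol/ampicillin/kanamycin with 0.1 mM IPTG. Recombination efficiency comes from averaged, control-corrected counts per million of recombinant-junction barcodes, reported as log10(CPM+1).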", "values": [{"sequence": "CTACGGACTTGGGTTCTAACCTGTTGCTG (site CTACGTACTCA)", "recombinant barcode read abundance (log10)": 0.0171}, {"sequence": "GGCGAGTCTTGGGTTCTAACCTGTTGCTA (site GACGAGTCTTA)", "recombinant barcode read abundance (log10)": 1.4}, {"sequence": "TAGGCTCCTTGGGTTCTAACCTGTTGCAT (site TAGGCTCCTGT)", "recombinant barcode read abundance (log10)": 0.0892}, {"sequence": "ACCTAACCTTGGGTTCTAACCTGTTGCAG (site TCCTAACCTCA)", "recombinant barcode read abundance (log10)": 0.0355}, {"sequence": "AAGAACACTTGGGTTCTAACCTGTTGCCT (site TAGAACACTAG)", "recombinant barcode read abundance (log10)": 1.19}, {"sequence": "ATGCTTGCTTGGGTTCTAACCTGTTGCCA (site ATGCTTGCTTG)", "recombinant barcode read abundance (log10)": 0.187}, {"sequence": "AACTGAACTTGGGTTCTAACCTGTTGCCT (site AACTTAACTAG)", "recombinant barcode read abundance (log10)": 0.0689}, {"sequence": "TGCGCAACTTGGGTTCTAACCTGTTGCCT (site TGCGCGACTAG)", "recombinant barcode read abundance (log10)": 0.0979}, {"sequence": "CTAAGTCCTTGGGTTCTAACCTGTTGCAT (site CTAACTCCTAT)", "recombinant barcode read abundance (log10)": 0.0677}, {"sequence": "GAGAGAACTTGGGTTCTAACCTGTTGCCT (site GAGAGAACTAG)", "recombinant barcode read abundance (log10)": 1.51}, {"sequence": "GGGGCCTCTTGGGTTCTAACCTGTTGCAA (site AGGGCCTCTCT)", "recombinant barcode read abundance (log10)": 0.474}, {"sequence": "AGCCTGCCTTGGGTTCTAACCTGTTGCCT (site AGCCTGACTAG)", "recombinant barcode read abundance (log10)": 0.0617}, {"sequence": "GACGCCTCTTGGGTTCTAACCTGTTGCGC (site GACGCCTCTGC)", "recombinant barcode read abundance (log10)": 2.25}, {"sequence": "CACTTGACTTGGGTTCTAACCTGTTGCTT (site CGCTTGTCTAA)", "recombinant barcode read abundance (log10)": 0.075}, {"sequence": "TATTCTCCTTGGGTTCTAACCTGTTGCAT (site TATTCTCCTAT)", "recombinant barcode read abundance (log10)": 0.186}, {"sequence": "TCCCCGGCTTGGGTTCTAACCTGTTGCCT (site TCCCCGGCTAG)", "recombinant barcode read abundance (log10)": 0.285}, {"sequence": "AGGTCGGCTTGGGTTCTAACCTGTTGCCT (site AGGTCGGCTAG)", "recombinant barcode read abundance (log10)": 1.24}, {"sequence": "CTCTCGTCTTGGGTTCTAACCTGTTGCTT (site CTCTCGTCTAC)", "recombinant barcode read abundance (log10)": 0.517}, {"sequence": "GAGGACTCTTGGGTTCTAACCTGTTGCCG (site GAGGACTCTAG)", "recombinant barcode read abundance (log10)": 2.41}, {"sequence": "CTCGTGACTTGGGTTCTAACCTGTTGCCT (site CTCGTTACTAG)", "recombinant barcode read abundance (log10)": 0.335}, {"sequence": "TGCTGGGCTTGGGTTCTAACCTGTTGCTG (site TGCTGGGCTCA)", "recombinant barcode read abundance (log10)": 0.32}, {"sequence": "CCAAGGACTTGGGTTCTAACCTGTTGCCT (site CCACGGACTAG)", "recombinant barcode read abundance (log10)": 0.0394}, {"sequence": "GGCTGATCTTGGGTTCTAACCTGTTGCCT (site CGCTGATCTAG)", "recombinant barcode read abundance (log10)": 0.309}, {"sequence": "AATGCATCTTGGGTTCTAACCTGTTGCCT (site AATGAATCTAG)", "recombinant barcode read abundance (log10)": 0.0891}, {"sequence": "CTCAATTCTTGGGTTCTAACCTGTTGCAT (site CTCAATTCTAT)", "recombinant barcode read abundance (log10)": 0.812}, {"sequence": "GGTGAGGCTTGGGTTCTAACCTGTTGCAT (site TAACCTACTTA)", "recombinant barcode read abundance (log10)": 0.214}, {"sequence": "CTGTAGGCTTGGGTTCTAACCTGTTGCTA (site CTGTAGCCTCA)", "recombinant barcode read abundance (log10)": 0.136}, {"sequence": "TAGTTTACTTGGGTTCTAACCTGTTGCCA (site TAGTTCACTTG)", "recombinant barcode read abundance (log10)": 0.109}, {"sequence": "TGAGTACCTTGGGTTCTAACCTGTTGCTT (site TGAGTCCCTAA)", "recombinant barcode read abundance (log10)": 0.0336}, {"sequence": "GGAAGGCCTTGGGTTCTAACCTGTTGCTT (site GGAAGGCCTAA)", "recombinant barcode read abundance (log10)": 0.221}, {"sequence": "ACCGGTACTTGGGTTCTAACCTGTTGCCT (site ACCGGTACTAG)", "recombinant barcode read abundance (log10)": 0.508}, {"sequence": "TATAACTCTTGGGTTCTAACCTGTTGCCT (site TATAACTCTAG)", "recombinant barcode read abundance (log10)": 0.549}, {"sequence": "GGTTAGTCTTGGGTTCTAACCTGTTGCCG (site GGTTAGTCTCG)", "recombinant barcode read abundance (log10)": 0.363}, {"sequence": "ACGCGTTCTTGGGTTCTAACCTGTTGCAT (site CTAGACCCTCC)", "recombinant barcode read abundance (log10)": 0.271}, {"sequence": "GACAATGCTTGGGTTCTAACCTGTTGCAT (site GACAATGCTAT)", "recombinant barcode read abundance (log10)": 0.105}, {"sequence": "CACTTGACTTGGGTTCTAACCTGTTGCCT (site CACTTGGCTAG)", "recombinant barcode read abundance (log10)": 0.137}, {"sequence": "ATCAGTACTTGGGTTCTAACCTGTTGCCT (site CTGAGTACTAG)", "recombinant barcode read abundance (log10)": 0.242}, {"sequence": "GCTGGGTCTTGGGTTCTAACCTGTTGCTT (site GCCGGGTCTAA)", "recombinant barcode read abundance (log10)": 0.284}, {"sequence": "TAGACCTCTTGGGTTCTAACCTGTTGCCT (site TAGACCTCTAG)", "recombinant barcode read abundance (log10)": 1.86}, {"sequence": "GAGTTACCTTGGGTTCTAACCTGTTGCGT (site GAGTTCCCTAC)", "recombinant barcode read abundance (log10)": 0.192}, {"sequence": "TACTATTCTTGGGTTCTAACCTGTTGCCT (site TACTATCCTAG)", "recombinant barcode read abundance (log10)": 0.0345}, {"sequence": "GTCGGGTCTTGGGTTCTAACCTGTTGCCT (site GTCGGGTCTAG)", "recombinant barcode read abundance (log10)": 1.47}, {"sequence": "GCTGCGACTTGGGTTCTAACCTGTTGCCT (site GCCGCGACTAG)", "recombinant barcode read abundance (log10)": 0.101}, {"sequence": "GCCTGAGCTTGGGTTCTAACCTGTTGCCT (site GCGTGAGCTAG)", "recombinant barcode read abundance (log10)": 0.272}, {"sequence": "GAAAACACTTGGGTTCTAACCTGTTGCCT (site GAAAACACTAG)", "recombinant barcode read abundance (log10)": 1.18}, {"sequence": "GATGGCCCTTGGGTTCTAACCTGTTGCCT (site GATGGCCCTAG)", "recombinant barcode read abundance (log10)": 1.23}, {"sequence": "CTATTGTCTTGGGTTCTAACCTGTTGCGC (site CTATTGTCTTC)", "recombinant barcode read abundance (log10)": 0.909}, {"sequence": "AACATAACTTGGGTTCTAACCTGTTGCGT (site TGTTGTCCTCA)", "recombinant barcode read abundance (log10)": 0.0331}, {"sequence": "ACTAGGGCTTGGGTTCTAACCTGTTGCGG (site AATAGGGCTCC)", "recombinant barcode read abundance (log10)": 0.729}, {"sequence": "ACTAGGCCTTGGGTTCTAACCTGTTGCGG (site ACTATCCCTCC)", "recombinant barcode read abundance (log10)": 0.0234}, {"sequence": "AGTCTAGCTTGGGTTCTAACCTGTTGCCG (site AGTCTAGCTCG)", "recombinant barcode read abundance (log10)": 0.67}, {"sequence": "CTGCAAGCTTGGGTTCTAACCTGTTGCCT (site CTGCAAGCTAG)", "recombinant barcode read abundance (log10)": 0.995}, {"sequence": "GCACGCTCTTGGGTTCTAACCTGTTGCCT (site GCACTCTCTAG)", "recombinant barcode read abundance (log10)": 0.12}, {"sequence": "AACGTGTCTTGGGTTCTAACCTGTTGCCT (site AATGTGTCTAG)", "recombinant barcode read abundance (log10)": 0.543}, {"sequence": "CGTCAACCTTGGGTTCTAACCTGTTGCGT (site CGTGAACCTAC)", "recombinant barcode read abundance (log10)": 0.0619}, {"sequence": "AGCGCTCCTTGGGTTCTAACCTGTTGCGT (site AGCCCTCCTAT)", "recombinant barcode read abundance (log10)": 0.532}, {"sequence": "CTATCCACTTGGGTTCTAACCTGTTGCCT (site CTGTCGACTAG)", "recombinant barcode read abundance (log10)": 0.873}, {"sequence": "AGCGGGCCTTGGGTTCTAACCTGTTGCCT (site AGCGGGCCTAG)", "recombinant barcode read abundance (log10)": 0.313}, {"sequence": "CATCCGACTTGGGTTCTAACCTGTTGCCT (site CATCCGTCTAG)", "recombinant barcode read abundance (log10)": 0.0237}, {"sequence": "TTACGGGCTTGGGTTCTAACCTGTTGCGG (site TTACGAGCTCC)", "recombinant barcode read abundance (log10)": 1.71}, {"sequence": "ACATGTGCTTGGGTTCTAACCTGTTGCAG (site ACATGTGCTCT)", "recombinant barcode read abundance (log10)": 1.72}, {"sequence": "TGACGTCCTTGGGTTCTAACCTGTTGCTT (site TGACGTCCTAT)", "recombinant barcode read abundance (log10)": 0.251}, {"sequence": "CCGTATGCTTGGGTTCTAACCTGTTGCCT (site CCGCATGCTAG)", "recombinant barcode read abundance (log10)": 0.104}, {"sequence": "CAGAGTACTTGGGTTCTAACCTGTTGCCT (site CACAGTGCTAG)", "recombinant barcode read abundance (log10)": 0.0547}, {"sequence": "TGCGCAACTTGGGTTCTAACCTGTTGCCT (site TGCGCTACTAG)", "recombinant barcode read abundance (log10)": 0.0921}, {"sequence": "ACGTAACCTTGGGTTCTAACCTGTTGCCT (site GTAACTACTGA)", "recombinant barcode read abundance (log10)": 0.083}]}]}
